In publication PMC8115619, “Generation of a chemical genetic model for JAK3” (Scientific Reports, 2021):

Tests used:
[1] = system: IL-2 induced STAT5 phosphorylation in spleenocytes; experiment: IL-2 induced STAT5 phosphorylation in spleenocytes; format: cell-based, mouse; conditions: wild type mice, inhibitor 1 h, 10 ng/ml IL-2
Procedure: (A) Single cell suspensions were prepared from the spleens of wild type mice. […] Cells were then stimulated with 10 ng/ml IL-4 for 30 min and the levels of phosphorylated STAT6 determined by immunoblotting. (B) As (A) except cells were stimulated with 10 ng/ml IL-2 and the levels of phosphorylated STAT5 determined. (C) CD8 T cells were expanded from the lymph nodes of wild type and JAK3 Cys905Ser knockin mice. Cells were rested in the absence of IL-2 for 60 min then incubated with the indicated concentrations of PF-06651600 for a further 30 min before stimulation with 10 ng/ml of IL-2 for 30 min. The levels of phosphorylated STAT5 and total ERK1/2 were then determined.
Cells were lysed directly into SDS sample buffer and aliquots run on 10% polyacrylamide gels using standard methods. Proteins were transferred onto nitrocellulose membranes, and specific proteins were detected by immunoblotting. […] Bands were detected using Clarity ECL reagents from BioRad and imaged on a Licor Odyssey Fc system. Quantification was carried out using Licor Image Studio software. After correction for the ERK1/2 levels to account for loading differences, percentage inhibition was calculated relative to the IL-4 stimulated condition. IC50 values were calculated using the same methods as for the in vitro IC50 values.

panel of 139 kinases = experiment: In vitro selectivity screen, whole panel; format: biochemical; conditions: 1 μM, panel of 139 kinases in vitro
Procedure: (§1) For the in vitro kinase assay, JAK3 (5–20 mU diluted in 50 mM Tris pH 7.5, 0.1 mM EGTA, 0.05% β-mercaptoethanol, 1 mg/ml BSA) was assayed against PDKtide ([…]) in a final volume of 25.5 µl containing 50 mM Tris pH 7.5, 0.1 mM EGTA, 0.05% β-mercaptoethanol, 100 µM substrate peptide, 10 mM magnesium acetate and 0.02 mM [33P-γ-ATP] (50–1000 cpm/pmole) and incubated for 30 min at room temperature. Assays were started by the addition of the ATP and stopped by addition of 5 µl of 0.5 M (3%) orthophosphoric acid and then harvested onto P81 Unifilter plates with a wash buffer of 50 mM orthophosphoric acid. To determine the Km for ATP, assays were run using 1, 5, 10, 20, 50, 100, 200, 400, 500 μM ATP and Km derived by non-linear regression fitting to the Michaelis–Menten equation v = Vmax[S]/(Km + [S]). IC50 values for inhibitors via non-linear regression using a parameter model: Y = Bottom + (Top–Bottom)/(1 + (IC50/X)^HillSlope). Non-linear regression was carried out in Prism (version 8). In vitro selectivity screen was carried out as described previously.

BRSK2 = BRSK2 (Homo sapiens, UniProt Q8IWQ3); experiment: Selectivity screen BRSK2; format: biochemical; conditions: 1 µM inhibitor, mean
Procedure: as §1

CHK2 = CHK2 (Homo sapiens, UniProt O96017); experiment: Selectivity screen CHK2; format: biochemical; conditions: 1 µM inhibitor, mean
Procedure: as §1

CK1γ2 = CK1γ2 (Homo sapiens, UniProt P78368); experiment: Selectivity screen CK1γ2; format: biochemical; conditions: 1 µM inhibitor, mean
CK1γ2, sequence (P78368 whole entry): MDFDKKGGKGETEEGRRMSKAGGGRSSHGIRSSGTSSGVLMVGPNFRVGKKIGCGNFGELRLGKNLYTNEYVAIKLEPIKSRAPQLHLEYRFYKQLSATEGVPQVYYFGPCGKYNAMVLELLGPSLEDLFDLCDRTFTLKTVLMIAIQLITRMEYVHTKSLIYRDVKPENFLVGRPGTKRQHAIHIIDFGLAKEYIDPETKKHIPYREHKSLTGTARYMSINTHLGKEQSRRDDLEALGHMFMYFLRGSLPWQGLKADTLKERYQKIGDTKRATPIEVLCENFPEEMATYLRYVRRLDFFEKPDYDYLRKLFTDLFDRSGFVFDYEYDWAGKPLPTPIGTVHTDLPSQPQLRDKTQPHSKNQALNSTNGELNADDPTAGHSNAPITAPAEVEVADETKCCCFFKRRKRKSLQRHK
Procedure: as §1

CK1δ = CK1δ (Homo sapiens, UniProt P48730); experiment: Selectivity screen CK1δ; format: biochemical; conditions: 1 µM inhibitor, mean
Procedure: as §1

DDR2 = DDR2 (Homo sapiens, UniProt Q16832); experiment: Selectivity screen DDR2; format: biochemical; conditions: 1 µM inhibitor, mean
DDR2, sequence (Q16832 22-855): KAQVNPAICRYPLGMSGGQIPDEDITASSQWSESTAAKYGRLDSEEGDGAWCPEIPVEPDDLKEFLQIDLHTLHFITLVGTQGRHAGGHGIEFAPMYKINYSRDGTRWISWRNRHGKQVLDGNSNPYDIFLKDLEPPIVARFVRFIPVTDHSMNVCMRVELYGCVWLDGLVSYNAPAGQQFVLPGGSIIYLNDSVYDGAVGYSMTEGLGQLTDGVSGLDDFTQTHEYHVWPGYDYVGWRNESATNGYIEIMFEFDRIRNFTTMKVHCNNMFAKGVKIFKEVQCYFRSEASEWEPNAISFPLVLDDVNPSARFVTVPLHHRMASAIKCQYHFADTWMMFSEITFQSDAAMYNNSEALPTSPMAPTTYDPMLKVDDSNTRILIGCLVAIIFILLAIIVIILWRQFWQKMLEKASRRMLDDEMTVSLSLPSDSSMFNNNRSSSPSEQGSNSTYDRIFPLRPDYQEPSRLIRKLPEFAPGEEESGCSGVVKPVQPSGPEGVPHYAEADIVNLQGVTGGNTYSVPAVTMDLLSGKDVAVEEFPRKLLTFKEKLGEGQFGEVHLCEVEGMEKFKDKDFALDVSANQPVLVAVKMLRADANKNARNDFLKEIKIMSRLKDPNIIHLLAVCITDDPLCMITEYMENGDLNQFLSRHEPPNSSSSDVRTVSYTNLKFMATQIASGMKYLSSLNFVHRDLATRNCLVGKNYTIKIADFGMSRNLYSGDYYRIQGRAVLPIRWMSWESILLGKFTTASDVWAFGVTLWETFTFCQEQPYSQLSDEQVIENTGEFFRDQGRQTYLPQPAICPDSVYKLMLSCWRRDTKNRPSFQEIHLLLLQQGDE
Procedure: as §1

EPH-B3 = EPH-B3 (Homo sapiens, UniProt P54753); experiment: Selectivity screen EPH-B3; format: biochemical; conditions: 1 µM inhibitor, mean
Procedure: as §1

FGF-R1 = FGF-R1 (Homo sapiens, UniProt P11362); experiment: Selectivity screen FGF-R1; format: biochemical; conditions: 1 µM inhibitor, mean
Procedure: as §1

HIPK2 = HIPK2 (Homo sapiens, UniProt Q9H2X6); experiment: Selectivity screen HIPK2; format: biochemical; conditions: 1 µM inhibitor, mean
Procedure: as §1

IGF-1R = IGF-1R (Homo sapiens, UniProt P08069); experiment: Selectivity screen IGF-1R; format: biochemical; conditions: 1 µM inhibitor, mean
Procedure: as §1

IR = IR (Homo sapiens, UniProt P06213); experiment: Selectivity screen IR; format: biochemical; conditions: 1 µM inhibitor, mean
IR, sequence (P06213 28-1382): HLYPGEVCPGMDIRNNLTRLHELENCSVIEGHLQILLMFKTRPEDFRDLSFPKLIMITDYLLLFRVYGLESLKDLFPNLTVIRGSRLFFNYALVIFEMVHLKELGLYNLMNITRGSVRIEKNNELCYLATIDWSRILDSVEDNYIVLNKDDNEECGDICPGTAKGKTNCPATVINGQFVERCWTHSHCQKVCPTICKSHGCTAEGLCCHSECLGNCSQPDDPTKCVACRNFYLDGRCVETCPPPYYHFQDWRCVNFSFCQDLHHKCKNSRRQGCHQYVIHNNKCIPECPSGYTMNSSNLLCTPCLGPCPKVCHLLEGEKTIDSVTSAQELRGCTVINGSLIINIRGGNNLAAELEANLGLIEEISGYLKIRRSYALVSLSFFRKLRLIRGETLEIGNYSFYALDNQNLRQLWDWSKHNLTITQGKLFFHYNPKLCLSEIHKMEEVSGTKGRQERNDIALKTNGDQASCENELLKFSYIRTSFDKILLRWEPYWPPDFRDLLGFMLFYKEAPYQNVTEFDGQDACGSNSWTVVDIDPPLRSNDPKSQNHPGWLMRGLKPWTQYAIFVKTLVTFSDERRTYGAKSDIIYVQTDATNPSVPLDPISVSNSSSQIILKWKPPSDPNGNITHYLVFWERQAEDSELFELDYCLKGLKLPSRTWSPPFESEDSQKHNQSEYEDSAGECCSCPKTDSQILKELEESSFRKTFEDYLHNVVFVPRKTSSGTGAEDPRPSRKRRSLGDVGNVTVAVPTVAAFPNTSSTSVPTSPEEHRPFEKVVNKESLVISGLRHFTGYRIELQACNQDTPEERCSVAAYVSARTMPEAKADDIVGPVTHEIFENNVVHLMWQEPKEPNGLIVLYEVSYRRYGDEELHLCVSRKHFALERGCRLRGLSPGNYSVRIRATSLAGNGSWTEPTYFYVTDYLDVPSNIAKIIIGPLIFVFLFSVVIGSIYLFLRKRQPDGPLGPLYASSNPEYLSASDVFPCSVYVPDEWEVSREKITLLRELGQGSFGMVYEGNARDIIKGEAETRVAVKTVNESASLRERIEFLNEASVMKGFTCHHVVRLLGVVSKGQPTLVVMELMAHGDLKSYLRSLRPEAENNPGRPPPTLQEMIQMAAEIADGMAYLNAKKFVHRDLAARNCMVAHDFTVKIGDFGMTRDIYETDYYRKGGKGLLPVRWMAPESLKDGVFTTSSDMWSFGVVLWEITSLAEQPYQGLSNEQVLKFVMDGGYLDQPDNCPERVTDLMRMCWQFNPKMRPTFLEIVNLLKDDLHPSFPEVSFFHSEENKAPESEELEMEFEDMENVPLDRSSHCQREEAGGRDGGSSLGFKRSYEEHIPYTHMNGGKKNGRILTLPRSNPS
Procedure: as §1

MELK = MELK (Homo sapiens, UniProt Q14680); experiment: Selectivity screen MELK; format: biochemical; conditions: 1 µM inhibitor, mean
MELK, sequence (Q14680 whole entry): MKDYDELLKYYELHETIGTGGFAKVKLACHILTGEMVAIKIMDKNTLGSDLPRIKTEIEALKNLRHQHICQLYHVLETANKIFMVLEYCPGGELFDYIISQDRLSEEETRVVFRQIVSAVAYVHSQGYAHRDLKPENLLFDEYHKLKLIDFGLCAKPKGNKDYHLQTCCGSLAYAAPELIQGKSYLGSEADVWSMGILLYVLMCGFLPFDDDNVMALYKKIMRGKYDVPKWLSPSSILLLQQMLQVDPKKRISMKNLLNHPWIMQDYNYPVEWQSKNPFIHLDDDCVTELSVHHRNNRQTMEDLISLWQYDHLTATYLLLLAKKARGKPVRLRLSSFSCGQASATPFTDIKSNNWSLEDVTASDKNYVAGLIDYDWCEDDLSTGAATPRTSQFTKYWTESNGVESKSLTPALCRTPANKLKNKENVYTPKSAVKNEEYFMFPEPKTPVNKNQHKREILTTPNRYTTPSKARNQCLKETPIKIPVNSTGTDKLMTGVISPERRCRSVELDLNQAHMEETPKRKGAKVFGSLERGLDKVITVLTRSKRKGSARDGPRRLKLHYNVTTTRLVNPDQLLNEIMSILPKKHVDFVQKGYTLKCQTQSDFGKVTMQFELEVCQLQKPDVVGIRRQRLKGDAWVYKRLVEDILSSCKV
Procedure: as §1

MINK1 = MINK1 (Homo sapiens, UniProt Q8N4C8); experiment: Selectivity screen MINK1; format: biochemical; conditions: 1 µM inhibitor, mean
Procedure: as §1

MKK2 = MKK2 (Homo sapiens, UniProt P36507); experiment: Selectivity screen MKK2; format: biochemical; conditions: 1 µM inhibitor, mean
Procedure: as §1

MKK6 = MKK6 (Homo sapiens, UniProt P52564); experiment: Selectivity screen MKK6; format: biochemical; conditions: 1 µM inhibitor, mean
Procedure: as §1

MLK3 = MLK3 (Homo sapiens, UniProt Q16584); experiment: Selectivity screen MLK3; format: biochemical; conditions: 1 µM inhibitor, mean
Procedure: as §1

MSK1 = MSK1 (Homo sapiens, UniProt O75582); experiment: Selectivity screen MSK1; format: biochemical; conditions: 1 µM inhibitor, mean
Procedure: as §1

MST3 = MST3 (Homo sapiens, UniProt Q9Y6E0); experiment: Selectivity screen MST3; format: biochemical; conditions: 1 µM inhibitor, mean
MST3, sequence (Q9Y6E0 whole entry): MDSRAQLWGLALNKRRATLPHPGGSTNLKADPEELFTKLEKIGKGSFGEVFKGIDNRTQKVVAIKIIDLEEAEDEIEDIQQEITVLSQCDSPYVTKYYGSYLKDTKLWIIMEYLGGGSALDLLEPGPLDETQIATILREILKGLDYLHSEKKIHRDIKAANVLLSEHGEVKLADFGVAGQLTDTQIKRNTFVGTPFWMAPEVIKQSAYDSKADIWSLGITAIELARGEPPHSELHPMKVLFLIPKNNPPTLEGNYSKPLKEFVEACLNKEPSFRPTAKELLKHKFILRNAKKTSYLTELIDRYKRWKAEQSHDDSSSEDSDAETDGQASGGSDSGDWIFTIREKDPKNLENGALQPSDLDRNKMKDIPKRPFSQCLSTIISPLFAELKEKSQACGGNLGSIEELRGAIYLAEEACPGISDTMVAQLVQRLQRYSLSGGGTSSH
Procedure: as §1

OSR1 = OSR1 (Homo sapiens, UniProt O95747); experiment: Selectivity screen OSR1; format: biochemical; conditions: 1 µM inhibitor, mean
Procedure: as §1

PKCγ = PKCγ (Homo sapiens, UniProt P05129); experiment: Selectivity screen PKCγ; format: biochemical; conditions: 1 µM inhibitor, mean
Procedure: as §1

YES1 = YES1 (Homo sapiens, UniProt P07947); experiment: Selectivity screen YES1; format: biochemical; conditions: 1 µM inhibitor, mean
Procedure: as §1

ZAP70 = ZAP70 (Homo sapiens, UniProt P43403); experiment: Selectivity screen ZAP70; format: biochemical; conditions: 1 µM inhibitor, mean
ZAP70, sequence (P43403 whole entry): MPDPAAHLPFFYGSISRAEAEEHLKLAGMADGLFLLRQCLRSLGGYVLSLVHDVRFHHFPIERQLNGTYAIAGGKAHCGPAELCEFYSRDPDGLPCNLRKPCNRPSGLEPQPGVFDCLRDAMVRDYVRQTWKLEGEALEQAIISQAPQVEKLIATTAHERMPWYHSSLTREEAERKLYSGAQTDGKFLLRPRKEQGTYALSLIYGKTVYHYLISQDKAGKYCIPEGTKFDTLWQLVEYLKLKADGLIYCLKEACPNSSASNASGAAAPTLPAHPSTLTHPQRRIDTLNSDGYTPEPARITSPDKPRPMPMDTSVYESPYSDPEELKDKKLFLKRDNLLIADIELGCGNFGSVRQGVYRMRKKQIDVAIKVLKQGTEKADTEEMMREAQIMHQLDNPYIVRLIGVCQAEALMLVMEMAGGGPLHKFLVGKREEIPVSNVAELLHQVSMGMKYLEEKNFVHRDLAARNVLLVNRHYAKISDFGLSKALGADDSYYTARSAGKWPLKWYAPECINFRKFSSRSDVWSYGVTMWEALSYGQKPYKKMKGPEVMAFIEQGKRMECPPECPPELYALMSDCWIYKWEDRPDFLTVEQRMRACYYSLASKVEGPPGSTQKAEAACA
Procedure: as §1

Structure (SMILES): C=CC(=O)Nc1cccc(CNc2nc(Nc3ccc(N4CCOCC4)cc3)ncc2Cl)c1 [TL8-52]
- block of IL-2 induced STAT5 phosphorylation in spleenocytes [1]: able to block
- number of other kinases inhibited by more than 80% (panel of 139 kinases): 8
- activity remaining in the presence of the inhibitor: BRSK2 (BRSK2): 87
- activity remaining in the presence of the inhibitor: CHK2 (CHK2): 75
- activity remaining in the presence of the inhibitor: CK1γ2 (CK1γ2): 96
- activity remaining in the presence of the inhibitor: CK1δ (CK1δ): 110
- activity remaining in the presence of the inhibitor: DDR2 (DDR2): 76
- activity remaining in the presence of the inhibitor: EPH-B3 (EPH-B3): 73
- activity remaining in the presence of the inhibitor: FGF-R1 (FGF-R1): 49
- activity remaining in the presence of the inhibitor: HIPK2 (HIPK2): 97
- activity remaining in the presence of the inhibitor: IGF-1R (IGF-1R): 24
- activity remaining in the presence of the inhibitor: IR (IR): 15
- activity remaining in the presence of the inhibitor: MELK (MELK): 66
- activity remaining in the presence of the inhibitor: MINK1 (MINK1): 80
- activity remaining in the presence of the inhibitor: MKK2 (MKK2): 63
- activity remaining in the presence of the inhibitor: MKK6 (MKK6): 105
- activity remaining in the presence of the inhibitor: MLK3 (MLK3): 3
- activity remaining in the presence of the inhibitor: MSK1 (MSK1): 54
- activity remaining in the presence of the inhibitor: MST3 (MST3): 97
- activity remaining in the presence of the inhibitor: OSR1 (OSR1): 98
- activity remaining in the presence of the inhibitor: PKCγ (PKCγ): 109
- activity remaining in the presence of the inhibitor: YES1 (YES1): 47
- activity remaining in the presence of the inhibitor: ZAP70 (ZAP70): 77

Structure (SMILES): C=CC(=O)Nc1cccc(CNc2nc(Nc3ccc(N4CCN(C)CC4)cc3OC)ncc2Cl)c1 [TL6-144]
- number of other kinases inhibited by more than 80% (panel of 139 kinases): 4
- activity remaining in the presence of the inhibitor: BRSK2 (BRSK2): 90
- activity remaining in the presence of the inhibitor: CHK2 (CHK2): 38
- activity remaining in the presence of the inhibitor: CK1γ2 (CK1γ2): 82
- activity remaining in the presence of the inhibitor: CK1δ (CK1δ): 83
- activity remaining in the presence of the inhibitor: DDR2 (DDR2): 83
- activity remaining in the presence of the inhibitor: EPH-B3 (EPH-B3): 77
- activity remaining in the presence of the inhibitor: FGF-R1 (FGF-R1): 44
- activity remaining in the presence of the inhibitor: HIPK2 (HIPK2): 87
- activity remaining in the presence of the inhibitor: IGF-1R (IGF-1R): 5
- activity remaining in the presence of the inhibitor: IR (IR): 11
- activity remaining in the presence of the inhibitor: MELK (MELK): 69
- activity remaining in the presence of the inhibitor: MINK1 (MINK1): 80
- activity remaining in the presence of the inhibitor: MKK2 (MKK2): 93
- activity remaining in the presence of the inhibitor: MKK6 (MKK6): 104
- activity remaining in the presence of the inhibitor: MLK3 (MLK3): 31
- activity remaining in the presence of the inhibitor: MSK1 (MSK1): 86
- activity remaining in the presence of the inhibitor: MST3 (MST3): 99
- activity remaining in the presence of the inhibitor: OSR1 (OSR1): 47
- activity remaining in the presence of the inhibitor: PKCγ (PKCγ): 111
- activity remaining in the presence of the inhibitor: YES1 (YES1): 89
- activity remaining in the presence of the inhibitor: ZAP70 (ZAP70): 86

Structure (SMILES): C=CC(=O)N1C[C@H](Nc2ncnc3[nH]ccc23)CC[C@@H]1C [PF-06651600, 1-((2S,5R)-5-((7H-Pyrrolo[2,3-d]pyrimidin-4-yl)amino)-2-methylpiperidin-1-yl)prop-2-en-1-one, reference compound]
- block of IL-2 induced STAT5 phosphorylation in spleenocytes [1]: able to block
